Measured values as given in patent US9839642B2, “Beta-tetrazolyl-propionic acids as metallo-beta-lactamase inhibitors” (priority 2014, dated 2017).

Experiments:
VIM-1 = VIM-1 (Pseudomonas aeruginosa, UniProt A0A0F7KYQ8); assay: Enzyme activity: determination of IC50, fluorescence assay with CCF2-FA substrate; format: biochemical; details: VIM-1 enzyme 30 pM, CCF2-FA 1.25 μM, 2 hours at 25° C.; read-out: VIM1 IC50
In short: (§1)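 100 mM KH2PO4 pH 7 + 0.005% Tween-20 + 10 μM ZnSO4; CCF2-FA 1.25 μM; NDM-1 1 pM, IMP-1 2 pM, VIM-1 30 pM; cpd 20–0.00063 μM final, DMSO 1:50. 2 h, 25° C. Ex 405/em 460 nm; IC50, 4-param fit.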

NDM-1 = NDM-1 (Klebsiella pneumoniae, UniProt C7C422); assay: as above; format: biochemical; details: NDM-1 enzyme 1 pM, CCF2-FA 1.25 μM, 2 hours at 25° C.; read-out: NDM1 IC50
Chain of NDM-1 (C7C422 29-270, looked up, species assumed): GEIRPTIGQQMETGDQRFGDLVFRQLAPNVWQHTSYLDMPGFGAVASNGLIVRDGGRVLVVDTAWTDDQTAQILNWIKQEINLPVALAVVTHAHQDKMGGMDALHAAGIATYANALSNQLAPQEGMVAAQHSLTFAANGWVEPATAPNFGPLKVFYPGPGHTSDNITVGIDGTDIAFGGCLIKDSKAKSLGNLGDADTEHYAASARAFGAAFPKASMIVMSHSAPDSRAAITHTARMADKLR
In short: as §1

IMP-1 = IMP-1 (Serratia marcescens, UniProt P52699); assay: as above; format: biochemical; details: IMP-1 enzyme 2 pM, CCF2-FA 1.25 μM, 2 hours at 25° C.; read-out: IMP1 IC50
Chain of IMP-1 (P52699 19-246, looked up, species assumed): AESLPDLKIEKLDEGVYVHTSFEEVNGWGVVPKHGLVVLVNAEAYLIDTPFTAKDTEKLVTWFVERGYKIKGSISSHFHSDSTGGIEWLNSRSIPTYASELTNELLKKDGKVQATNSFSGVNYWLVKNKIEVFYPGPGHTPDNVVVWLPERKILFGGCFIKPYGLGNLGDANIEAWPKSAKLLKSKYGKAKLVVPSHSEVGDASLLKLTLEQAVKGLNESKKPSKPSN
In short: as §1

[1] = tested on: Escherichia coli expressing NDM-1 (CLB30016); assay: Antibiotic potentiation activity: synergistic concentration (MITC95) with imipenem, growth by OD600; format: cell-based; details: E. coli CLB30016 (NDM-1), 95% inhibition of growth
In short: (§2)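 MITC95 = lowest inhibitor concentration giving 95% growth inhibition, read by absorbance after 22–24 h at 35° C. Compound range 200 μM to 0.195 μM, imipenem fixed at 1 or 4 μg/ml, bacteria in 1.1×CAMHB from saline suspension diluted 1:100.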

[2] = tested on: Serratia marcescens expressing IMP-1 (CL5741); assay: as above; format: cell-based; details: S. marcescens CL5741 (IMP-1), 95% inhibition of growth
In short: as §2

[3] = tested on: Klebsiella pneumoniae expressing VIM-1 (IHMA599644); assay: as above; format: cell-based; details: K. pneumoniae IHMA599644 (VIM-1), 95% inhibition of growth
In short: as §2

SMILES: CCC[C@H](C(=O)O)[C@H](Cc1cccc(-c2ccc(NS(C)(=O)=O)cc2)c1)c1nn[nH]n1 [Example 343, (2S)-2-[(1S)-2-{4′-[(methylsulfonyl)amino]biphenyl-3-yl}-1-(2H-tetrazol-5-yl)ethyl]pentanoic acid]
- IC50 (VIM-1): 2.4 nM
- IC50 (NDM-1): 11 nM
- IC50 (IMP-1): 22 nM
- NDM1 EC30016 MITC95 [1]: 25 µM
- IMP1 SM5741 MITC95 [2]: 0.39 µM
- VIM1 KP599644 MITC95 [3]: 18.8 µM

SMILES: CCC[C@H](C(=O)O)[C@H](Cc1cccc(-c2ccc(C(=O)NC)cc2)c1)c1nn[nH]n1 [Example 344, (2S)-2-[(1S)-2-[4′-(methylcarbamoyl)biphenyl-3-yl]-1-(2H-tetrazol-5-yl)ethyl]pentanoic acid]
- IC50 (VIM-1): 1.7 nM
- IC50 (NDM-1): 14 nM
- IC50 (IMP-1): 28 nM
- NDM1 EC30016 MITC95 [1]: 38 µM
- IMP1 SM5741 MITC95 [2]: 0.59 µM
- VIM1 KP599644 MITC95 [3]: 50 µM

SMILES: CCC[C@H](C(=O)O)[C@H](Cc1cccc(-c2cccc(C3CCCNC3)c2)c1)c1nn[nH]n1 (stereo partly drawn) [Example 345, (2S)-2-[(1S)-2-(3′-piperidin-3-ylbiphenyl-3-yl)-1-(2H-tetrazol-5-yl)ethyl]pentanoic acid]
- IC50 (VIM-1): 1.7 nM
- IC50 (NDM-1): 39 nM
- IC50 (IMP-1): 270 nM
- NDM1 EC30016 MITC95 [1]: 25 µM
- IMP1 SM5741 MITC95 [2]: 6.2 µM
- VIM1 KP599644 MITC95 [3]: 18.8 µM

SMILES: CCC[C@H](C(=O)O)[C@H](Cc1cccc(-c2ccc(N3CCOCC3)nc2)c1)c1nn[nH]n1 [Example 346, (2S)-2-[(1S)-2-[3-(6-morpholin-4-ylpyridin-3-yl)phenyl]-1-(2H-tetrazol-5-yl)ethyl]pentanoic acid]
- IC50 (VIM-1): 2.2 nM
- IC50 (NDM-1): 21 nM
- IC50 (IMP-1): 320 nM
- NDM1 EC30016 MITC95 [1]: 75 µM
- IMP1 SM5741 MITC95 [2]: 6.2 µM
- VIM1 KP599644 MITC95 [3]: 38 µM

SMILES: CCC[C@H](C(=O)O)[C@H](Cc1cccc(-c2cncc(CN3CCCCC3)c2)c1)c1nn[nH]n1 [Example 347, (2S)-2-[(1S)-2-{3-[5-(piperidin-1-ylmethyl)pyridin-3-yl]phenyl}-1-(2H-tetrazol-5-yl)ethyl]pentanoic acid]
- IC50 (VIM-1): 6.5 nM
- IC50 (NDM-1): 160 nM
- IC50 (IMP-1): 1600 nM
- NDM1 EC30016 MITC95 [1]: 50 µM
- IMP1 SM5741 MITC95 [2]: 25 µM
- VIM1 KP599644 MITC95 [3]: 25 µM

SMILES: CCC[C@H](C(=O)O)[C@H](Cc1cccc(-c2cccc(OC3CCNCC3)n2)c1)c1nn[nH]n1 [Example 348, (2S)-2-[(1S)-2-{3-[6-(piperidin-4-yloxy)pyridin-2-yl]phenyl}-1-(2H-tetrazol-5-yl)ethyl]pentanoic acid]
- IC50 (VIM-1): 2.2 nM
- IC50 (NDM-1): 22 nM
- IC50 (IMP-1): 540 nM
- NDM1 EC30016 MITC95 [1]: 18.8 µM
- IMP1 SM5741 MITC95 [2]: 6.2 µM
- VIM1 KP599644 MITC95 [3]: 18.8 µM

SMILES: CCC[C@H](C(=O)O)[C@H](Cc1cccc(-c2ccnc(N)c2)c1)c1nn[nH]n1 [Example 349, (2S)-2-[(1S)-2-[3-(2-aminopyridin-4-yl)phenyl]-1-(2H-tetrazol-5-yl)ethyl]pentanoic acid]
- IC50 (VIM-1): 1.3 nM
- IC50 (NDM-1): 11 nM
- IC50 (IMP-1): 140 nM
- NDM1 EC30016 MITC95 [1]: 9.4 µM
- IMP1 SM5741 MITC95 [2]: 3.9 µM
- VIM1 KP599644 MITC95 [3]: 12.5 µM

SMILES: CCC[C@H](C(=O)O)[C@H](Cc1cccc(-c2ccc(C3CCNCC3)cc2)c1)c1nn[nH]n1 [Example 350, (2S)-2-[(1S)-2-(4′-piperidin-4-ylbiphenyl-3-yl)-1-(2H-tetrazol-5-yl)ethyl]pentanoic acid]
- IC50 (VIM-1): 3 nM
- IC50 (NDM-1): 26 nM
- IC50 (IMP-1): 380 nM
- NDM1 EC30016 MITC95 [1]: 25 µM
- IMP1 SM5741 MITC95 [2]: 6.2 µM
- VIM1 KP599644 MITC95 [3]: 25 µM

SMILES: CCC[C@H](C(=O)O)[C@H](Cc1cccc(-c2ccc(C(N)=O)cc2)c1)c1nn[nH]n1 [Example 351, (2S)-2-[(1)-2-(4′-carbamoylbiphenyl-3-yl)-1-(2H-tetrazol-5-yl)ethyl]pentanoic acid]
- IC50 (VIM-1): 1.6 nM
- IC50 (NDM-1): 0.78 nM
- IC50 (IMP-1): 24 nM
- NDM1 EC30016 MITC95 [1]: 7.8 µM
- IMP1 SM5741 MITC95 [2]: 0.59 µM
- VIM1 KP599644 MITC95 [3]: 25 µM

SMILES: CCC[C@H](C(=O)O)[C@H](Cc1cccc(-c2cncc3ccccc23)c1)c1nn[nH]n1 [Example 352, (2S)-2-[(1S)-2-(3-isoquinolin-4-ylphenyl)-1-(2H-tetrazol-5-yl)ethyl]pentanoic acid]
- IC50 (VIM-1): 1.7 nM
- IC50 (NDM-1): 1.7 nM
- IC50 (IMP-1): 7.8 nM
- NDM1 EC30016 MITC95 [1]: 18.8 µM
- IMP1 SM5741 MITC95 [2]: 0.39 µM
- VIM1 KP599644 MITC95 [3]: 50 µM

SMILES: CCC[C@H](C(=O)O)[C@H](Cc1cccc(-c2ccncc2)c1)c1nn[nH]n1 [Example 353, (2S)-2-[(1S)-2-(3-pyridin-4-ylphenyl)-1-(2H-tetrazol-5-yl)ethyl]pentanoic acid]
- IC50 (VIM-1): 2.3 nM
- IC50 (NDM-1): 13 nM
- IC50 (IMP-1): 160 nM
- NDM1 EC30016 MITC95 [1]: 38 µM
- IMP1 SM5741 MITC95 [2]: 6.2 µM
- VIM1 KP599644 MITC95 [3]: 100 µM

SMILES: CCC[C@H](C(=O)O)[C@H](Cc1cccc(-c2ccc3c(c2)CCC(N)C3)c1)c1nn[nH]n1 (stereo partly drawn) [Example 354, (2S)-2-[(1S)-2-[3-(6-amino-5,6,7,8-tetrahydronaphthalen-2-yl)phenyl]-1-(2H-tetrazol-5-yl)ethyl]pentanoic acid]
- IC50 (VIM-1): 1.4 nM
- IC50 (NDM-1): 13 nM
- IC50 (IMP-1): 310 nM
- NDM1 EC30016 MITC95 [1]: 9.4 µM
- IMP1 SM5741 MITC95 [2]: 4.7 µM
- VIM1 KP599644 MITC95 [3]: 9.4 µM

SMILES: CCC[C@H](C(=O)O)[C@H](Cc1cccc(-c2ccc(N3CCNCC3)nc2)c1)c1nn[nH]n1 [Example 355, (2S)-2-[(1S)-2-[3-(6-piperazin-1-ylpyridin-3-yl)phenyl]-1-(2H-tetrazol-5-yl)ethyl]pentanoic acid]
- IC50 (VIM-1): 2.8 nM
- IC50 (NDM-1): 21 nM
- IC50 (IMP-1): 550 nM
- NDM1 EC30016 MITC95 [1]: 12.5 µM
- IMP1 SM5741 MITC95 [2]: 9.4 µM
- VIM1 KP599644 MITC95 [3]: 18.8 µM

SMILES: CCC[C@H](C(=O)O)[C@H](Cc1cccc(-c2cnc(N)c(F)c2)c1)c1nn[nH]n1 [Example 356, (2S)-2-[(1S)-2-[3-(6-amino-5-fluoropyridin-3-yl)phenyl]-1-(2H-tetrazol-5-yl)ethyl]pentanoic acid]
- IC50 (VIM-1): 1.5 nM
- IC50 (NDM-1): 6.2 nM
- IC50 (IMP-1): 170 nM
- NDM1 EC30016 MITC95 [1]: 25 µM
- IMP1 SM5741 MITC95 [2]: 4.7 µM
- VIM1 KP599644 MITC95 [3]: 18.8 µM

SMILES: CCC[C@H](C(=O)O)[C@H](Cc1cccc(-c2ccccc2CN2CCCCC2)c1)c1nn[nH]n1 [Example 357, (2S)-2-[(1S)-2-[2′-(piperidin-1-ylmethyl)biphenyl-3-yl]-1-(2H-tetrazol-5-yl)ethyl]pentanoic acid]
- IC50 (VIM-1): 63 nM
- IC50 (NDM-1): 170 nM
- IC50 (IMP-1): 2100 nM
- NDM1 EC30016 MITC95 [1]: 150 µM
- IMP1 SM5741 MITC95 [2]: 38 µM
- VIM1 KP599644 MITC95 [3]: 150 µM

SMILES: CCC[C@H](C(=O)O)[C@H](Cc1cccc(-c2cccc(CN3CCCCC3)c2)c1)c1nn[nH]n1 [Example 358, (2S)-2-[(1S)-2-[3′-(piperidin-1-ylmethyl)biphenyl-3-yl]-1-(2H-tetrazol-5-yl)ethyl]pentanoic acid]
- IC50 (VIM-1): 6.2 nM
- IC50 (NDM-1): 47 nM
- IC50 (IMP-1): 1000 nM
- NDM1 EC30016 MITC95 [1]: 38 µM
- IMP1 SM5741 MITC95 [2]: 12.5 µM
- VIM1 KP599644 MITC95 [3]: 62 µM

SMILES: CCC[C@H](C(=O)O)[C@H](Cc1cccc(-c2cccc(CN)c2)c1)c1nn[nH]n1 [Example 359, (2S)-2-[(1S)-2-[3′-(aminomethyl)biphen-yl-3-yl]-1-(2H-tetrazol-5-yl)ethyl]pentanoic acid]
- IC50 (VIM-1): 2.5 nM
- IC50 (NDM-1): 60 nM
- IC50 (IMP-1): 750 nM
- NDM1 EC30016 MITC95 [1]: 9.4 µM
- IMP1 SM5741 MITC95 [2]: 12.5 µM
- VIM1 KP599644 MITC95 [3]: 6.2 µM

SMILES: CCC[C@H](C(=O)O)[C@H](Cc1cccc(N2CCCC(O)C2)c1)c1nn[nH]n1 (stereo partly drawn) [Example 360, (2S)-2-[(1S)-2-[3-(3-hydroxypiperidin-1-yl)phenyl]-1-(2H-tetrazol-5-yl)ethyl]pentanoic acid]
- IC50 (VIM-1): 13 nM
- IC50 (NDM-1): 47 nM
- IC50 (IMP-1): 510 nM
- NDM1 EC30016 MITC95 [1]: 25 µM
- IMP1 SM5741 MITC95 [2]: 18.8 µM
- VIM1 KP599644 MITC95 [3]: 150 µM

SMILES: CCC[C@H](C(=O)O)[C@H](Cc1cccc(N(C)CCN(C)C)c1)c1nn[nH]n1 [Example 361, (2S)-2-[(1S)-2-(3-{[2-(dimethylamino)ethyl] (methyl)amino}phenyl)-1-(2H-tetrazol-5-yl)ethyl]pentanoic acid]
- IC50 (VIM-1): 29 nM
- IC50 (NDM-1): 390 nM
- IC50 (IMP-1): 8700 nM
- NDM1 EC30016 MITC95 [1]: 38 µM
- IMP1 SM5741 MITC95 [2]: 150 µM
- VIM1 KP599644 MITC95 [3]: 25 µM

SMILES: CCC[C@H](C(=O)O)[C@H](Cc1cccc(N2CCN(C)CC2)c1)c1nn[nH]n1 [Example 362, (2S)-2-[(1S)-2-[3-(4-methylpiperazin-1-yl)phenyl]-1-(2H-tetrazol-5-yl)ethyl]pentanoic acid]
- IC50 (VIM-1): 10 nM
- IC50 (NDM-1): 640 nM
- IC50 (IMP-1): 11000 nM
- NDM1 EC30016 MITC95 [1]: 25 µM
- IMP1 SM5741 MITC95 [2]: 150 µM
- VIM1 KP599644 MITC95 [3]: 18.8 µM
